TGI and GI50 data for 14 molecules are collected here from PubChem BioAssay (NCI).

SMILES strings stand for the structures.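 Interpolation was linear, between the two tested concentrations surrounding the appropriate level; five concentrations were tested over 48 hours in 96-well plates. GI50 marks 50% less growth. TGI marks complete inhibition of growth.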

Among the test systems are 786-0 renal; ACHN renal; HCC-2998 colon; HT29 colon; M14 melanoma; RPMI-8226 leukemia; SF-295 CNS; SK-MEL-2 melanoma; SK-MEL-5 melanoma.
Test in all cases: NCI-60 cell line screen, 48 h

Take `CCCCN(CCCC)CC(C(=O)Nc1ccc([N+](=O)[O-])cc1[N+](=O)[O-])/C(C)=N\NC(=O)C[N+](C)(C)C` (configuration not stated): the TGI in the experiment on 786-0 renal is more than 100 µM; in the experiment on ACHN renal it was more than 100 µM; with HCC-2998 colon, more than 100 µM; with HT29 colon, more than 100 µM; in the experiment on M14 melanoma, more than 100 µM; in the experiment with RPMI-8226 leukemia, 73.8 µM. Also, the TGI with SF-295 CNS, in the experiment with SK-MEL-2 melanoma and with SK-MEL-5 melanoma was more than 100 µM throughout.
For the molecule `O=C1NC(=O)C2C1C1C=C3c4ccccc4N(c4ccccc4)C32[C@H]2C(=O)NC(=O)[C@@H]12` (some centres not stated), the TGI in the experiment with 786-0 renal, with ACHN renal, in the experiment on HCC-2998 colon, in the experiment with HT29 colon, with M14 melanoma and in the experiment with RPMI-8226 leukemia was more than 100 µM each time. Besides, the TGI with SF-295 CNS, with SK-MEL-2 melanoma and in the experiment with SK-MEL-5 melanoma was more than 100 µM throughout.
With `C#CCn1c(=O)c2cccnc2n(CC#C)c1=O`, the TGI with 786-0 renal, in the experiment on ACHN renal, with HCC-2998 colon, in the experiment on HT29 colon, with M14 melanoma and in the experiment with RPMI-8226 leukemia was more than 100 µM in each case. The TGI in the experiment on SF-295 CNS, with SK-MEL-2 melanoma and with SK-MEL-5 melanoma was more than 100 µM in each case.
With `Cn1c2cc([N+](=O)[O-])ccc2c(=O)c2c(O)cc3c(c21)C=CC(C)(C)O3`, the TGI in the experiment on 786-0 renal, in the experiment on ACHN renal, with HCC-2998 colon, in the experiment on HT29 colon, in the experiment on M14 melanoma and in the experiment on RPMI-8226 leukemia was more than 100 µM throughout. For the same molecule, the TGI with SF-295 CNS is 47.1 µM; in the experiment on SK-MEL-2 melanoma, more than 100 µM; in the experiment on SK-MEL-5 melanoma, more than 100 µM.
Consider `CCc1cccc(CC)c1NC(=O)CC1SC(N)=NC1=O` (configuration not stated), for which the TGI in the experiment with 786-0 renal, in the experiment on ACHN renal, in the experiment on HCC-2998 colon, in the experiment on HT29 colon, in the experiment on M14 melanoma and in the experiment on RPMI-8226 leukemia was more than 100 µM each time. For the same molecule, the TGI in the experiment on SF-295 CNS, in the experiment on SK-MEL-2 melanoma and in the experiment on SK-MEL-5 melanoma was more than 100 µM each time.
With `CC(=O)CC(=O)NC=O`, the TGI in the experiment with 786-0 renal, in the experiment on ACHN renal, with HCC-2998 colon, in the experiment with HT29 colon, with M14 melanoma and with RPMI-8226 leukemia was more than 100 µM throughout. For the same molecule, the TGI in the experiment on SF-295 CNS, with SK-MEL-2 melanoma and in the experiment with SK-MEL-5 melanoma was more than 100 µM in each case.
For `O=C(O)c1cn(C2CC2)c2cc(N3CCN(C(=O)Nc4nc(-c5ccc(Br)cc5)cs4)CC3)c(F)cc2c1=O`, the GI50 with 786-0 renal was 1.75 µM; in the experiment with ACHN renal, 3.11 µM; in the experiment with HCC-2998 colon, 2.97 µM; with HT29 colon it was 2.6 µM; in the experiment on M14 melanoma it was 2.24 µM; with RPMI-8226 leukemia, 0.437 µM. Also, in the experiment on SF-295 CNS, the GI50 is 3.06 µM. In addition, the TGI in the experiment with 786-0 renal, with ACHN renal, with HCC-2998 colon, with HT29 colon, in the experiment on M14 melanoma and in the experiment on RPMI-8226 leukemia was more than 100 µM each time. Besides, in the experiment with SF-295 CNS, the TGI was more than 100 µM.
Regarding `Cc1ccc(NC(=O)/C(=N\NC(N)=S)C(C#N)c2ccccc2C)cc1C` (configuration not stated), the TGI in the experiment on 786-0 renal, with ACHN renal, in the experiment on HCC-2998 colon, in the experiment with HT29 colon, with M14 melanoma and with RPMI-8226 leukemia was more than 100 µM throughout. The TGI with SF-295 CNS, in the experiment with SK-MEL-2 melanoma and with SK-MEL-5 melanoma was more than 100 µM each time.
As to `N#Cc1c(-c2ccccc2)cc(-c2cccs2)c(C#N)c1N`, the TGI in the experiment on 786-0 renal, in the experiment on ACHN renal, with HCC-2998 colon, in the experiment on HT29 colon, in the experiment with M14 melanoma and in the experiment with RPMI-8226 leukemia was more than 100 µM in each case. For the same molecule, the TGI in the experiment on SF-295 CNS and in the experiment on SK-MEL-5 melanoma was more than 100 µM each time.
Take `C=CCC12CCC(=O)[C@@]1(C)CC=C(O)C2=O` (some centres not stated): the TGI in the experiment on 786-0 renal, with ACHN renal, with HCC-2998 colon, in the experiment with HT29 colon, with M14 melanoma and in the experiment with RPMI-8226 leukemia was more than 100 µM throughout. Moreover, the TGI with SF-295 CNS and with SK-MEL-5 melanoma was more than 100 µM each time.
On to `Fc1ccc(C2SCc3nc4ccccc4n32)cc1F` (configuration not stated), for which the TGI was more than 100 µM in the experiment with 786-0 renal; more than 100 µM in the experiment with ACHN renal; more than 100 µM in the experiment on HCC-2998 colon; 76.7 µM in the experiment on M14 melanoma; 36.7 µM with RPMI-8226 leukemia; more than 100 µM in the experiment with SF-295 CNS. For the same molecule, the values for the TGI in the experiment on SK-MEL-2 melanoma and in the experiment on SK-MEL-5 melanoma were 63.7 µM and 34.3 µM, respectively.
Turning to `COC(=O)c1nc(C(=O)OC)c2c([nH]c3ccccc32)c1C(=O)OC`, the TGI in the experiment on 786-0 renal, in the experiment on HCC-2998 colon, in the experiment with HT29 colon, with M14 melanoma, in the experiment on SF-295 CNS and in the experiment on SK-MEL-2 melanoma was more than 100 µM in each case. The TGI in the experiment with SK-MEL-5 melanoma came out at 95.1 µM.
For `O=C1C(=C([O-])c2ccccc2)C(=O)c2ccccc21.O=C1C(=C([O-])c2ccccc2)C(=O)c2ccccc21.[Co+2]`, the GI50 with 786-0 renal, in the experiment with ACHN renal, with HCC-2998 colon, in the experiment with HT29 colon, in the experiment on M14 melanoma and in the experiment on RPMI-8226 leukemia was more than 100 µM throughout. The GI50 in the experiment on SF-295 CNS was 59.6 µM; in the experiment with SK-MEL-5 melanoma, more than 100 µM. The TGI in the experiment with 786-0 renal, in the experiment on ACHN renal, with HCC-2998 colon, with HT29 colon, in the experiment on M14 melanoma and in the experiment with RPMI-8226 leukemia was more than 100 µM in each case. In addition, the TGI in the experiment on SF-295 CNS and with SK-MEL-5 melanoma was more than 100 µM each time.
For the molecule `C=C(COC(C)=O)CC(/C=C(\C)CC/C=C(\C)CO)OC(C)=O` (configuration not stated), the TGI in the experiment with 786-0 renal, with ACHN renal, in the experiment with HCC-2998 colon, in the experiment with HT29 colon, in the experiment with M14 melanoma and in the experiment on SF-295 CNS was more than 100 µM throughout. The TGI in the experiment on SK-MEL-2 melanoma and in the experiment with SK-MEL-5 melanoma was more than 100 µM in each case.
